Test results taken from patent publication US8580812B2, “Heteroaryl amide analogues as P2X7 antagonists” (H. Lundbeck A/S, priority 2007, dated 2013).

Each compound was assayed against T1, P2X7 (Homo sapiens, UniProt Q99572) (assay: High Throughput P2X7 Calcium Mobilization Assay (Example 4A), antagonist activity). Settings: SH-SY5Y cells, 50% decrease in fluorescence response of cells exposed to 80 μM BzATP.
T1 construct: host or cells: SH-SY5Y
T1 sequence (Q99572 1-595): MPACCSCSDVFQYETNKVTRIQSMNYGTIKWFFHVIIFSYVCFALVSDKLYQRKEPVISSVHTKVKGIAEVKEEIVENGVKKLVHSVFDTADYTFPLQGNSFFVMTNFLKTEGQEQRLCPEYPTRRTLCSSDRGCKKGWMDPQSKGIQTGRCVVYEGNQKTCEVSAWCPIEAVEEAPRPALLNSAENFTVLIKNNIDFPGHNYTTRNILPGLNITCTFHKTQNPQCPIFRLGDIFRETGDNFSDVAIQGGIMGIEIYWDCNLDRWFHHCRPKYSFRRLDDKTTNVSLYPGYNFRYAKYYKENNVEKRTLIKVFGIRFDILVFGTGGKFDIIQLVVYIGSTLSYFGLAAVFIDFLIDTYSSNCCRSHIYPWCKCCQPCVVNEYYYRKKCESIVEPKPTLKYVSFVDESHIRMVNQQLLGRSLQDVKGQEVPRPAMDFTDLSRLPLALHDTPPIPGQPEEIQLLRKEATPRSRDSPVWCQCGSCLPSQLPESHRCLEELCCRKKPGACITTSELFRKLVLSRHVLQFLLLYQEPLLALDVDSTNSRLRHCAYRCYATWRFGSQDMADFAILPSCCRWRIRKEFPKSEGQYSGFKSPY
Assay type: cell-based
Protocol: A. High Throughput P2X7 Calcium Mobilization Assay
SH-SY5Y cells, ATCC Number CRL-2266, (American Type Culture Collection, Manassas, Va.) are cultured under DMEM/High medium supplemented with 10% FBS, and 10 mM HEPES (Invitrogen Corp., Carlsbad, Calif.) in 5% CO2 and at 37° C. One day prior to the experiment, cells are plated at a density of 100,000 cells/well in a 96 well black/clear TC plate (Corning® Costar®, Sigma-Aldrich Co., St. Louis, Mo.). At the beginning of the experiment, the culture medium is removed and cells are incubated with 50 μL of 2.3 μM Fluo-4 AM dye (Invitrogen Corp.) in the assay solution (5 mM KCl, 9.6 mM NaH2PO4.H2O, 25 mM HEPES, 280 mM Sucrose, 5 mM Glucose, and 0.5 mM CaCl2; pH is adjusted to 7.4 with NaOH) for an hour at 37° C. After one hour dye incubation, wells are rinsed once with 50 μL assay solution, and are then incubated for an hour at room temperature with 100 μL assay solution containing the test compound. The final concentration of test compound generally ranges from 1 to 2500 nM; for positive control cells, no test compound is added. After the one hour incubation, plates are transferred to a FLIPR^TETRA instrument (Molecular Devices, Sunnyvale, Calif.) for calcium mobilization analysis.
For determination of antagonist activity, 50 μL of P2X7 agonist (2′(3′)-O-(4-benzoyl-benzoyl)adenosine 5′-triphosephate (BzATP; Sigma-Aldrich) in the assay solution is transferred using the FLIPR into the plate, such that the final agonist concentration is 80 μM (about EC50). In negative control cells, 50 μL of assay solution without agonist is added at this stage. The peak fluorescence signal over a 2 minute period is then measured.
First, the average maximum relative fluorescent unit (RFU) response from the negative control wells (no agonist) is subtracted from the maximum response detected for each of the other experimental wells. Second, average maximum RFU response is calculated for the positive control wells (agonist wells). Then, percent inhibition for each compound tested is calculated using the equation: Percent Inhibition=100−100×(Peak Signal in Test Cells/Peak Signal in Control Cells) The % inhibition data is plotted as a function of test compound concentration and test compound IC50 is determined using, for example, KALEIDAGRAPH software (Synergy Software, Reading, Pa.) best fit of the data to the equation: y=m1*(1/(1+(m2/m0)^m3)) where y is the percent inhibition, m0 is […], m1 is the maximum RFU, m2 corresponds to the test compound IC50 (the concentration required to provide a 50% decrease, relative to the response observed in the presence of agonist and without antagonist) and m3 is the Hill coefficient.

SMILES	IC50
CC(C)N[C@@H]1CCN(C(=O)c2cc3c(C(=O)NCC45CC6CC(CC(C6)C4)C5)cccn3n2)C1 [Compound 16, N-(adamantan-1-ylmethyl)-2-{[(3R)-3-(isopropylamino)pyrrolidin-1-yl]carbonyl}pyrazolo [l,5-a]pyridine-4-carboxamide]	≤ 2000 nM
N#Cc1ccc(C(=O)c2ccc3c(C(=O)NCC45CC6CC(CC(C6)C4)C5)cccn23)cc1 [Compound 109, N-(adamantan-1-ylmethyl)-3-(4-cyanobenzoyl)indolizine-8-carboxamide]	≤ 2000 nM
CN(C)[C@@H]1CCN(C(=O)c2cc3c(C(=O)NCC45CC6CC(CC(C6)C4)C5)cccn3n2)C1 [Compound 27, N-(adamantan-1-ylmethyl)-2-{[(3R)-3-(dimethylamino)pyrrolidin-1-yl]carbonyl}pyrazolo [1,5-a]pyridine-4-carboxamide]	≤ 2000 nM
CCOC(=O)CN(C)Cc1cc2c(C(=O)NCC34CC5CC(CC(C5)C3)C4)cccn2n1 [Compound 29, ethyl N-({4-[(adamantan-1-ylmethyl)carbamoyl]pyrazolo[1,5-a]pyridin-2-yl}methyl)-N-methylglycinate]	≤ 2000 nM
CC(C)CC(CNC(=O)c1cccn2nc(C(=O)N3CC[C@@H](N)C3)cc12)c1ccccc1 (stereo partly drawn) [Compound 45, 2-{[(3R)-3-aminopyrrolidin-1-yl]carbonyl}-N-(4-methyl-2-phenylpentyl)pyrazolo [1,5-a]pyridine-4-carboxamide]	≤ 2000 nM
CC(C)CC(CNC(=O)c1cccn2nc(C(=O)N3CC[C@@H](N)C3)cc12)c1cccnc1 (stereo partly drawn) [Compound 56, 2-{[(3R)-3-aminopyrrolidin-1-yl]carbonyl}-N-(4-methyl-2-pyridin-3-ylpentyl)pyrazolo[1,5-a]pyridine-4-carboxamide]	≤ 2000 nM
CCOC(=O)CNC(=O)c1cc2c(C(=O)NCC34CC5CC(CC(C5)C3)C4)cccn2n1 [Compound 41, ethyl N-({4-[(adamantan-1-ylmethyl)carbamoyl]pyrazolo[1,5-a]pyridin-2-yl}carbonyl)glycinate]	≤ 2000 nM
O=C(O)c1ccc(-c2cc3c(C(=O)NCC45CC6CC(CC(C6)C4)C5)cccn3c2)cc1 [Compound 108, 4-{8-[(adamantan-1-ylmethyl)carbamoyl]indolizin-2-yl}benzoic acid]	≤ 2000 nM
O=C1CC2(CCN(C(=O)c3cc4c(C(=O)NCC56CC7CC(CC(C7)C5)C6)cccn4n3)CC2)CN1 [Compound 40, N-(adamantan-1-ylmethyl)-2-[(3-oxo-2,8-diazaspiro[4.5]dec-8-yl)carbonyl]pyrazolo [1,5-a]pyridine-4-carboxamide]	≤ 2000 nM
O=C(Cc1cc2c(C(=O)NCC34CC5CC(CC(C5)C3)C4)cccn2n1)NCC(F)F [Compound 60, N-(adamantan-1-ylmethyl)-2-{2-[(2,2-difluoroethyl)amino]-2-oxoethyl}pyrazolo[1,5-a]pyridine-4-carboxamide]	≤ 2000 nM
O=C(Cc1cc2c(C(=O)NCC34CC5CC(CC(C5)C3)C4)cccn2n1)NCCF [Compound 59, N-(adamantan-1-ylmethyl)-2-{2-[(2-fluoroethyl)amino]-2-oxoethyl}pyrazolo[1,5-a]pyridine-4-carboxamide]	≤ 2000 nM
O=C(NCC12CC3CC(CC(C3)C1)C2)c1cccn2nc(C(=O)N3CCn4cnnc4C3)cc12 [Compound 24, N-(adamantan-1-ylmethyl)-2-(5,6-dihydro[1,2,4]triazolo [4,3-a]pyrazin-7(8H)-ylcarbonyl)pyrazolo [1,5-a]pyridine-4-carboxamide]	≤ 2000 nM

Now from value to compound:

IC50	SMILES
≤ 2000 nM	CN(Cc1cncn1C)C(=O)c1cc2c(C(=O)NCC34CC5CC(CC(C5)C3)C4)cccn2n1 [Compound 26, 4-N-(adamantan-1-ylmethyl)-2-N-methyl-2-N-[(1-methyl-1H-imidazol-5-yl)methyl]pyrazolo[1,5-a]pyridine-2,4-dicarboxamide]
≤ 2000 nM	O=C(NCCF)c1cc2c(C(=O)NCC34CC5CC(CC(C5)C3)C4)cccn2n1 [Compound 62, 4-N-(adamantan-1-ylmethyl)-2-N-(2-fluoroethyl)pyrazolo [1,5-a]pyridine-2,4-dicarboxamide]
≤ 2000 nM	O=C(NCc1ccccn1)c1cc2c(C(=O)NCC34CC5CC(CC(C5)C3)C4)cccn2n1 [Compound 51, 4-N-(adamantan-1-ylmethyl)-2-N-(pyridin-2-ylmethyl)pyrazolo[1,5-a]pyridine-2,4-dicarboxamide]
≤ 2000 nM	CN(CCF)C(=O)c1cc2c(NC(=O)CC34CC5CC(CC(C5)C3)C4)cccn2n1 [Compound 98, 4-[(adamantan-1-ylacetyl)amino]-N-(2-fluoroethyl)-N-methylpyrazolo[1,5-a]pyridine-2-carboxamide]
≤ 2000 nM	N[C@@H]1CCN(C(=O)c2cc3c(C(=O)NCC4(c5cccnc5)CCCCC4)cccn3n2)C1 [Compound 57, 2-{[(3R)-3-aminopyrrolidin-1-yl]carbonyl}-N-[(1-pyridin-3-ylcyclohexyl)methyl] pyrazolo[1,5-a]pyridine-4-carboxamide]
≤ 2000 nM	CC(C)CC(CNC(=O)c1cccn2nc(C(=O)N3CCn4cncc4C3)cc12)c1ccc(C(F)(F)F)cc1 (stereo not shown) [Compound 88, 2-(5,6-dihydroimidazo[1,5-a]pyrazin-7(8H)-ylcarbonyl)-N-{4-methyl-2-[4-(trifluoromethyl)phenyl]pentyl}pyrazolo[1,5-a]pyridine-4-carboxamide]
≤ 2000 nM	CC(C)CC(CNC(=O)c1cccn2nc(C(=O)N3CC[C@@H](N)C3)cc12)c1ccc(Cl)cc1 (stereo partly drawn) [Compound 71, 2-{[(3R)-3-aminopyrrolidin-1-yl]carbonyl}-N-[2-(4-chlorophenyl)-4-methylpentyl]pyrazolo [1,5-a]pyridine-4-carboxamide]
≤ 2000 nM	CN(Cc1cnccn1)C(=O)c1cc2c(C(=O)NCC34CC5CC(CC(C5)C3)C4)cccn2n1 [Compound 48, 4-N-(adamantan-1-ylmethyl)-2-N-methyl-2-N-(pyrazin-2-ylmethyl)pyrazolo[1,5-a]pyridine-2,4-dicarboxamide]
≤ 2000 nM	CCOC(=O)CN(C)C(=O)c1cc2c(C(=O)NCC34CC5CC(CC(C5)C3)C4)cccn2n1 [Compound 23, ethyl N-({4-[(adamantan-1-ylmethyl)carbamoyl]pyrazolo[1,5-a]pyridin-2-yl}carbonyl)-N-methylglycinate]
≤ 2000 nM	CC(C)CC(CNC(=O)c1cccn2nc(C(=O)N3CCOCC3)cc12)c1ccc(Cl)cc1 (stereo not shown) [Compound 91, N-[2-(4-chlorophenyl)-4-methylpentyl]-2-(morpholin-4-ylcarbonyl)pyrazolo [1,5-a]pyridine-4-carboxamide]
≤ 2000 nM	CN(CCF)C(=O)c1cc2c(C(=O)NCC3(c4ccc(C(F)(F)F)cc4)CCCCC3)cccn2n1 [Compound 93, Pyrazolo[1,5-a]pyridine-2,4-dicarboxylic acid 2-[(2-fluoro-ethyl)-methyl-amide]-4-{[1-(4-trifluoromethyl-phenyl)-cyclohexylmethyl]-amide}]
≤ 2000 nM	CC(C)CC(CNC(=O)c1cccn2nc(C(=O)N3C[C@@H](C)O[C@@H](C)C3)cc12)c1ccc(C(F)(F)F)cc1 (single isomer, unassigned) [Compound 100]
≤ 2000 nM	CN(Cc1ccccc1F)C(=O)c1cc2c(C(=O)NCC34CC5CC(CC(C5)C3)C4)cccn2n1 [Compound 65, 4-N-(adamantan-1-ylmethyl)-2-N-(2-fluorobenzyl)-2-N-methylpyrazolo[1,5-a]pyridine-2,4-dicarboxamide]
